# Measurements: ChEMBL document CHEMBL1781926, “Synthesis of 1-naphtylpiperazine derivatives as serotoninergic ligands and their evaluation as antiproliferative agents” (Eur J Med Chem, 2011)
# Active and inactive are the calls of the source. The calls are words filed in the database; no cut-off is given here.
# Tests used:
# [1] = molecular target: T1, 5-hydroxytryptamine receptor 1A (Rattus norvegicus, UniProt P19327); assay: Displacement of [3H]8-OH-DPAT from 5HT1A receptor in Sprague-Dawley rat brain cortex homogenates after 30 mins by liquid scintillation counting; assay type: tissue-based
# T1 sequence (P19327 whole entry): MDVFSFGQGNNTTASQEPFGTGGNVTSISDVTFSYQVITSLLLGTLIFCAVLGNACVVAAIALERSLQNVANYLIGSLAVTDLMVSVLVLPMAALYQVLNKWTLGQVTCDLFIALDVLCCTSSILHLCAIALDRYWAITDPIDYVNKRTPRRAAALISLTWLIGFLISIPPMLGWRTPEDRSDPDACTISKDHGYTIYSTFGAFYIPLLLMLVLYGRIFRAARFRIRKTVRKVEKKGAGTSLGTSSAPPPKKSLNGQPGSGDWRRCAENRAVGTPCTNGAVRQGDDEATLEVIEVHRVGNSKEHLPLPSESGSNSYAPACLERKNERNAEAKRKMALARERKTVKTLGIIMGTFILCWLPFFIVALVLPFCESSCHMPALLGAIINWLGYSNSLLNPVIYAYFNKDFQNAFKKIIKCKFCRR
# D(2) dopamine receptor = D(2) dopamine receptor (Rattus norvegicus, UniProt P61169); assay: Displacement of [3H]spiperone from dopamine D2 receptor in rat corpora striatum homogenates after 15 mins by liquid scintillation counting
# Chain of D(2) dopamine receptor (P61169 whole entry): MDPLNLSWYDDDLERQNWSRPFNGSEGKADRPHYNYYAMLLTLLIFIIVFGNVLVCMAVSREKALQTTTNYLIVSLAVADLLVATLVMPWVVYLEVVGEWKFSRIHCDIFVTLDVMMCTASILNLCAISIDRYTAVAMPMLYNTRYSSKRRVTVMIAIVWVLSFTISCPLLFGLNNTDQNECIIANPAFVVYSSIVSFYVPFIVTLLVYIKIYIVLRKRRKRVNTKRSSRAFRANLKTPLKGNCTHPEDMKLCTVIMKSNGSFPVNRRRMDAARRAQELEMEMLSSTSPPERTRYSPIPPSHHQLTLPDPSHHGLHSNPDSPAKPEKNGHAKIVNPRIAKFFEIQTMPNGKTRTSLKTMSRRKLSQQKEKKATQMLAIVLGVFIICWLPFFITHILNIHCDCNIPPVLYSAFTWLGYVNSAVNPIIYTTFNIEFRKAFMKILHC
# [2] = molecular target: 5-hydroxytryptamine receptor 2A (Rattus norvegicus, UniProt P14842); assay: Displacement of [3H]Ketanserin from 5HT2A receptor in Sprague-Dawley rat frontal cortical homogenates after 15 mins
# Chain of 5-hydroxytryptamine receptor 2A (P14842 whole entry): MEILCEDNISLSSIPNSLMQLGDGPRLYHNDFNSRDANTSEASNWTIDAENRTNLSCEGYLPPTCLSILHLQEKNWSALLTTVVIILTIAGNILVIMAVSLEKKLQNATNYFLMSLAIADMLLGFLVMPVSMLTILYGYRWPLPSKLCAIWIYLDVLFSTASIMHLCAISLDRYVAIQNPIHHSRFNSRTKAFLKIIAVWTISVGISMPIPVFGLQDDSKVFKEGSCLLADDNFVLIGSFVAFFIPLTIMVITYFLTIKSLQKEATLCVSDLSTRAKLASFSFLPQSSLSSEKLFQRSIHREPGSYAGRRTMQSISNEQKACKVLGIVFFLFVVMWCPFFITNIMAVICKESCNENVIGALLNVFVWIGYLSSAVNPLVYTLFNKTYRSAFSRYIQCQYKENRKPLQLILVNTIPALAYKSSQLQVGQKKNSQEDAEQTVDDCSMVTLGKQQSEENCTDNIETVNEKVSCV
# D(1A) dopamine receptor = D(1A) dopamine receptor (Rattus norvegicus, UniProt P18901); assay: Displacement of [3H]SCH 23390 from dopamine D1 receptor in rat corpora striatum homogenates after 15 mins by liquid scintillation counting
# Chain of D(1A) dopamine receptor (P18901 whole entry): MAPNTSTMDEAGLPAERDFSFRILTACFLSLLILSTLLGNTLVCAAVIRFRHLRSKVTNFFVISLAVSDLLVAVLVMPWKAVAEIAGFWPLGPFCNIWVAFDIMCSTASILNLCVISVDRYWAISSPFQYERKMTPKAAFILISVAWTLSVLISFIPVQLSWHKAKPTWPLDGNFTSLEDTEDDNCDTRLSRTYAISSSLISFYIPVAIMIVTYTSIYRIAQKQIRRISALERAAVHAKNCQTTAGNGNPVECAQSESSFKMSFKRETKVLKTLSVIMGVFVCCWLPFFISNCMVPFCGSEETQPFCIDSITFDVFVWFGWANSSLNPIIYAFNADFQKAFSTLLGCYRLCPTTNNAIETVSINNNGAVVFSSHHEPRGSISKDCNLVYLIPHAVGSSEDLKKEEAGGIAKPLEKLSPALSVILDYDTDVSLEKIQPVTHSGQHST
# PC-3 [3] = assay: Cell cycle arrest in human PC3 cells assessed as accumulation at G1 phase at 15 uM after 24 hrs using propidium iodide staining by flow cytometry (reference value: 46.97 %); assay type: functional
# PC-3 [4] = assay: Cell cycle arrest in human PC3 cells assessed as accumulation at G1 phase at 15 uM after 72 hrs using propidium iodide staining by flow cytometry (reference value: 42.19 %); assay type: functional
# PC-3 [5] = assay: Cell cycle arrest in human PC3 cells assessed as accumulation at G2 phase at 15 uM after 48 hrs using propidium iodide staining by flow cytometry (reference value: 13.36 %); assay type: functional
# PC-3 [6] = assay: Induction of apoptosis in human PC3 cells at 15 uM after 48 hrs using propidium iodide staining by flow cytometry (reference value: 0.84 %); assay type: functional
# PC-3 [7] = assay: Cell cycle arrest in human PC3 cells assessed as accumulation at S phase at 15 uM after 24 hrs using propidium iodide staining by flow cytometry (reference value: 34.84 %); assay type: functional
# PC-3 [8] = assay: Induction of apoptosis in human PC3 cells at 15 uM after 24 hrs using propidium iodide staining by flow cytometry (reference value: 1.27 %); assay type: functional
# PC-3 [9] = assay: Cell cycle arrest in human PC3 cells assessed as accumulation at G2 phase at 15 uM after 24 hrs using propidium iodide staining by flow cytometry (reference value: 18.19 %); assay type: functional
# PC-3 [10] = assay: Antiproliferative activity against human PC3 cells assessed as growth inhibition after 96 hrs by SRB assay; assay type: functional, cell-based
# PC-3 [11] = assay: Cell cycle arrest in human PC3 cells assessed as accumulation at S phase at 15 uM after 48 hrs using propidium iodide staining by flow cytometry (reference value: 38.16 %); assay type: functional
# PC-3 [12] = assay: Induction of apoptosis in human PC3 cells at 15 uM after 72 hrs using propidium iodide staining by flow cytometry (reference value: 1.79 %); assay type: functional
# PC-3 [13] = assay: Cell cycle arrest in human PC3 cells assessed as accumulation at G1 phase at 15 uM after 48 hrs using propidium iodide staining by flow cytometry (reference value: 54.14 %); assay type: functional
# PC-3 [14] = assay: Cell cycle arrest in human PC3 cells assessed as accumulation at S phase at 15 uM after 72 hrs using propidium iodide staining by flow cytometry (reference value: 37.73 %); assay type: functional
# PC-3 [15] = assay: Cell cycle arrest in human PC3 cells assessed as accumulation at G2 phase at 15 uM after 72 hrs using propidium iodide staining by flow cytometry (reference value: 20.18 %); assay type: functional
# [16] = molecular target: T2, Adrenergic receptor alpha-2 (Rattus norvegicus, UniProt P22086+P19328+P22909); assay: Displacement [3H]yohimbine from alpha 2 adrenergic receptor in rat brain cortex homogenates after 30 mins by liquid scintillation counting; assay type: tissue-based
# T2 sequence (P22086 whole entry): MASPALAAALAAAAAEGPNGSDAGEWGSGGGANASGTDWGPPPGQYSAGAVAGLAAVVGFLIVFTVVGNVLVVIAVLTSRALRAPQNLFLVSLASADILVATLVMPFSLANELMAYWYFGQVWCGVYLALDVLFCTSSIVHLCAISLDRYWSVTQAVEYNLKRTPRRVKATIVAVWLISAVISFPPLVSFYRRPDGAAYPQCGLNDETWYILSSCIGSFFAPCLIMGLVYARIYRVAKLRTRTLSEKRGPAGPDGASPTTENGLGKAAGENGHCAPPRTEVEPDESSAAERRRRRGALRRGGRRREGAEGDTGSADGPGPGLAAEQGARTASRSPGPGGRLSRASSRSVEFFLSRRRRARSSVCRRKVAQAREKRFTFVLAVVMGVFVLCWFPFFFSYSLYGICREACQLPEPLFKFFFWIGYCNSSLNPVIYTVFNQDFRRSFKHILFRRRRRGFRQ
# T2 sequence (P19328 whole entry): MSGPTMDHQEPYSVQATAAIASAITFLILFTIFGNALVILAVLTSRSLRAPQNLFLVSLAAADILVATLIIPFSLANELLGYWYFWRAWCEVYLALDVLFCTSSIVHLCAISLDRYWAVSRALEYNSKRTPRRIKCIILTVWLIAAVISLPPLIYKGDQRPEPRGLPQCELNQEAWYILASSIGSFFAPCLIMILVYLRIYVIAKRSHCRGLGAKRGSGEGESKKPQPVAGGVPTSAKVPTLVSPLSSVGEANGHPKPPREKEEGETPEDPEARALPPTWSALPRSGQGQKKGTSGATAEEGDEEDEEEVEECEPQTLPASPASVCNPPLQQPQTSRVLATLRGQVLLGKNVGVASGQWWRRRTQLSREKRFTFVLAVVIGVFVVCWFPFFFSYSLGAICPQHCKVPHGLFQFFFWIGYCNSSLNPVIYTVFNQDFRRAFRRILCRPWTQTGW
# T2 sequence (P22909 whole entry): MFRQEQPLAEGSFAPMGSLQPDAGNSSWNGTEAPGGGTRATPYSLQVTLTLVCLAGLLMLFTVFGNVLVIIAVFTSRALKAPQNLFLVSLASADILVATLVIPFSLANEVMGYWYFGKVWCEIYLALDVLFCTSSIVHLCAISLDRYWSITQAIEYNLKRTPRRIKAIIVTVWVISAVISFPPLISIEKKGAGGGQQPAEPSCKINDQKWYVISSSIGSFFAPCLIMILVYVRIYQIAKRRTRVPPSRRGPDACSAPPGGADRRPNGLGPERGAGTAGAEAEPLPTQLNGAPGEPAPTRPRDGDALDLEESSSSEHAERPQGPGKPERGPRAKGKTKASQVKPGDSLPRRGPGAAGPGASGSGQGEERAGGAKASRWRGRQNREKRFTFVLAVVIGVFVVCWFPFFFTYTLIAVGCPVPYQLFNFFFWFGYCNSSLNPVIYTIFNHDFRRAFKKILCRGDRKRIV
# [17] = molecular target: T3, 5-hydroxytryptamine receptor 2C (Rattus norvegicus, UniProt P08909); assay: Displacement of [3H]mesulergine from 5HT2C receptor in Sprague-Dawley rat frontal cortical homogenates after 15 mins
# T3 sequence (P08909 whole entry): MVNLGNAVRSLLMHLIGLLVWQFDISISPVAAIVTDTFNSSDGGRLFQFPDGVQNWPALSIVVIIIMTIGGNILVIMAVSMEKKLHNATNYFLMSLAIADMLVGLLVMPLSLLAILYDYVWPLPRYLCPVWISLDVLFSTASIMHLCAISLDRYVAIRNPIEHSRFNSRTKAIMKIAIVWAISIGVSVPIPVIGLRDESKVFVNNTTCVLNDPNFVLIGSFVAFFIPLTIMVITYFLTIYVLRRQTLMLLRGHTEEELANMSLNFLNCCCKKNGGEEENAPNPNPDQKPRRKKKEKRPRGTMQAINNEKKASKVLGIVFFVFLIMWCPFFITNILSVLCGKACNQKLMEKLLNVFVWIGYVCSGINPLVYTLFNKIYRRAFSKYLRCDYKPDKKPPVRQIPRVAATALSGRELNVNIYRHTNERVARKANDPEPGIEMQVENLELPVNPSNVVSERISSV
# [18] = molecular target: T4, Adrenergic receptor alpha-1 (Rattus norvegicus, UniProt P15823+P23944+P43140); assay: Displacement [3H]prazosin from alpha1 adrenergic receptor in rat brain cortex homogenates after 30 mins by liquid scintillation counting; assay type: tissue-based
# T4 sequence (P15823 whole entry): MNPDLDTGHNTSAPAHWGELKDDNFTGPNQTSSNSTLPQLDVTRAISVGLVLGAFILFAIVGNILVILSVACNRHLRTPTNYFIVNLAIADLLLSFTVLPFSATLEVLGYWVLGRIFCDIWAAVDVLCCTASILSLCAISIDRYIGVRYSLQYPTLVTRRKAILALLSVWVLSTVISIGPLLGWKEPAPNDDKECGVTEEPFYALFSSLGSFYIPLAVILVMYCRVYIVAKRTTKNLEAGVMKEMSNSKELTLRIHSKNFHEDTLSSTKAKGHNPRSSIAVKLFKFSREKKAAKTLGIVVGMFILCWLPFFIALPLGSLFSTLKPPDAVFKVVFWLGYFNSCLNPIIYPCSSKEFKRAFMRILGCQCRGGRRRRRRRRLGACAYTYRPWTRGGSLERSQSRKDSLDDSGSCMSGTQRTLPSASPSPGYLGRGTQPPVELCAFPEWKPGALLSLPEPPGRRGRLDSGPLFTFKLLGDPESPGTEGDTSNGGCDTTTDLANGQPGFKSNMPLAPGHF
# T4 sequence (P23944 whole entry): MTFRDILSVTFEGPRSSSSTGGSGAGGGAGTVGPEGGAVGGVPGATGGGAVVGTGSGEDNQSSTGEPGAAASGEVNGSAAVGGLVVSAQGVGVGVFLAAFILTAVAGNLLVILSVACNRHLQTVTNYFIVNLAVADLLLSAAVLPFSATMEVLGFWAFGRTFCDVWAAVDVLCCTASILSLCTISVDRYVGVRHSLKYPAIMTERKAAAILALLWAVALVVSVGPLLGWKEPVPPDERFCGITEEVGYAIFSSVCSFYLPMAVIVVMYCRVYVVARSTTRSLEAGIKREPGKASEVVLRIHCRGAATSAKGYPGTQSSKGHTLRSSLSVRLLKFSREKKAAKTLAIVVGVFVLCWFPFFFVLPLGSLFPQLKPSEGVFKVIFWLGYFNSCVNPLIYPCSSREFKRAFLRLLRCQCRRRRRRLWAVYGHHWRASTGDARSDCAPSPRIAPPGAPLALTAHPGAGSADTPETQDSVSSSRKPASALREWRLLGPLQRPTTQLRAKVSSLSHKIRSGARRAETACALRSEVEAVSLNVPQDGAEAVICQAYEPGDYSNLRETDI
# T4 sequence (P43140 whole entry): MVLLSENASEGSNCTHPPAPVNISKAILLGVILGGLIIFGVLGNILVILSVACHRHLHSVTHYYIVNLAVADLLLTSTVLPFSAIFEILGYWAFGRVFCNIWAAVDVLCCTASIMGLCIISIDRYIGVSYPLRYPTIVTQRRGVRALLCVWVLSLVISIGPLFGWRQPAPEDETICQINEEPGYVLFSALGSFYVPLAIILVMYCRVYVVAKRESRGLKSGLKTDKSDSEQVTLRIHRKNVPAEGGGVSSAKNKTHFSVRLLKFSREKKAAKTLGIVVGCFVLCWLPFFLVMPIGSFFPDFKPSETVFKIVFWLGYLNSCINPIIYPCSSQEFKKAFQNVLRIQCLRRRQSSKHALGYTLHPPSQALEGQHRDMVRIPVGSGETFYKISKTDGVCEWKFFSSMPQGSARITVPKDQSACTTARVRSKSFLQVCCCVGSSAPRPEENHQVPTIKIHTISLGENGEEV
# [19] = molecular target: RAC-alpha serine/threonine-protein kinase (Homo sapiens) (UniProt P31749); assay: Inhibition of serotonin-induced AKT phosphorylation in human PC3 cells at 15 uM after 48 hrs by Western blotting; assay type: cell-based; conditions: PC-3
# Chain of RAC-alpha serine/threonine-protein kinase (Homo sapiens) (P31749 whole entry): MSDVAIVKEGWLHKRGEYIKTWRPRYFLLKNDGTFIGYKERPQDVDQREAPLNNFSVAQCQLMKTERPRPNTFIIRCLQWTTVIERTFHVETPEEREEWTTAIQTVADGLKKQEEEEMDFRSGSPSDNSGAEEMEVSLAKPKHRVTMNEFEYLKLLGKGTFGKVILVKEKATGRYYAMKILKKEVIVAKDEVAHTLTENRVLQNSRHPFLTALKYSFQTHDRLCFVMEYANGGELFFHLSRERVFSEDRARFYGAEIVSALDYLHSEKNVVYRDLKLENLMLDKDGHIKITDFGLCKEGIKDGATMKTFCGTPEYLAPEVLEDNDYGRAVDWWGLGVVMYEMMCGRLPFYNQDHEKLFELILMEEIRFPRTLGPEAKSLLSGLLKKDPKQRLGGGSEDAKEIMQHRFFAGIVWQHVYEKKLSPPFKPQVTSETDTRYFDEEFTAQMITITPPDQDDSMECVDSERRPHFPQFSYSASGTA
# PC-3 [20] = assay: Inhibition of serotonin-induced MAPK phosphorylation in human PC3 cells at 15 uM after 48 hrs by Western blotting; assay type: cell-based
SMILES,Activity (PC-3 [3]) [%],Activity (PC-3 [4]) [%],Activity (PC-3 [5]) [%],Activity (PC-3 [6]) [%],Activity (PC-3 [7]) [%],Activity (PC-3 [8]) [%],Activity (PC-3 [9]) [%],growth inhibition (GI) (PC-3 [10]),Activity (PC-3 [11]) [%],Activity (PC-3 [12]) [%],Activity (PC-3 [13]) [%],Activity (PC-3 [14]) [%],Activity (PC-3 [15]) [%],other results
N#CNC(=NCCCN1CCN(c2cccc3ccccc23)CC1)c1ccncc1,–,–,–,–,–,–,–,–,–,–,–,–,–,Ki [1]: > 10 µM; Ki (D(2) dopamine receptor): 1.6 µM; Ki [2]: 0.172 µM; Ki (D(1A) dopamine receptor): > 10 µM
Br.COc1ccccc1N1CCN(CCCCN2C(=O)c3ccccc3C2=O)CC1,37.1,45.73,14.88,1.77,38.16,2.42,24.74,inactive,35.59,3.05,49.53,43.02,11.26,–
N#C/N=C(\NCCCN1CCN(c2cccc3ccccc23)CC1)c1ccncc1,–,–,–,–,–,–,–,inactive,–,–,–,–,–,Ki [16]: 0.878 µM; Ki [17]: Not Active; Ki [18]: > 10 µM
Br.CCCN(CCC)[C@H]1CCc2cccc(O)c2C1,40.62,50.34,14.92,2.2,34.96,0.73,24.42,inactive,37.31,2.65,47.78,36.5,13.17,inhibition [19]: Active; inhibition (PC-3 [20]): inactive
